Where two headings read alike, the source gives them in different places.

Test [1] has as its target T1, prostaglandin E2-induced contractions of segments of guinea pig ileum (Cavia porcellus, UniProt A0A286XHJ6).
T1 construct: The ilea were then quickly removed from the guinea pigs; from tissue; host or cells: ileum segments of male albino guinea pigs
T1 sequence (A0A286XHJ6 1-405): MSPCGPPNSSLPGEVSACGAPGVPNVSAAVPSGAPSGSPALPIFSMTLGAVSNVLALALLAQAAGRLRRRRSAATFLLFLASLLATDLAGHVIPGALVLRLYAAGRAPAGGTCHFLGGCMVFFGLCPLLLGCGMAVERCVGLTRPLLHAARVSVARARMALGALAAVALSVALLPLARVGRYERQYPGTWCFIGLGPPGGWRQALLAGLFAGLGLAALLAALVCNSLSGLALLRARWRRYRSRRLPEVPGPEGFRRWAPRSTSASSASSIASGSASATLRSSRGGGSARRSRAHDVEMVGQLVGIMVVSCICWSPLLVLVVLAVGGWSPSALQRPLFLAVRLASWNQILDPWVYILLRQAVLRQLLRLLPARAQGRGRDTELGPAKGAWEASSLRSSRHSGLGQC
The experiment in a line: Prostaglandin (PGE) Antagonism Assay in guinea pig ileum. The conditions noted are these: initial concentration 3 micromolar; estimated pA2 (slope -1.0 assumed) or Schild plot pA2. The protocol: In order to determine the effectiveness of several of the compounds of the present invention ("test compounds") as prostaglandin E2 antagonists,a prostaglandin antagonism assay was conducted, as described below, to determine the ability of these compounds to inhibit prostaglandin E2 -induced contractions of segments of guinea pig ileum.
Male albino guinea pigs weighing 200 to 500 grams were sacrificed by cervical dislocation. The ilea were then quickly removed from the guinea pigs and placed in a modified Tyrode solution, a solution which is known to those skilled in the art, containing one-half of the usual amount of magnesium ions.
Segments of ileum about 2 cm long were then cut and mounted in a 10-mL tissue bath containing the modified Tyrode solution. The solution was maintained at 37° C. and aerated with a gaseous mixture of 95% oxygen and 5% carbon dioxide. Data for a control prostaglandin E2 dose response curve plotting concentration of prostaglandin E2 versus the intensity of contractions, detected isotonically, was then obtained by experimentally adjusting the dose of the prostaglandin E2 being injected into the tissue bath, in a manner known by those of skill in the art.
Solutions or suspensions containing an initial concentration (3 micromolar) of a test compound in modified Tyrode solution ("test solutions/suspensions") were then separately substituted for the control bath solution. Each test solution/suspension was then kept in constant contact with the ileum tissue, except for brief periods to drain the bath in preparation for rinsing with fresh test solution/suspension. A second prostaglandin E2 dose response curve was then generated for prostaglandin E2 in the presence of a test compound.
A dose ratio of EC50 doses was then calculated from the results of each test in a manner known by those of skill in the art. A test compound was determined to be "active" if the initial concentration used yielded at least a two-fold shift (dose ratio greater than or equal to 2) in the dose response curve for prostaglandin E2.
The compounds of the present invention which were tested in this assay, and for which results are presented in Table 2, correspond to the particular examples specified in Table 2.

Test [2] concerns phenylbenzoquinone (PBQ)-induced writhing in mice. The experiment in a line: Writhing Assay (phenylbenzoquinone-induced writhing, analgesia). Format: in vivo, Charles River male albino mice. The following applies: for responders at 30 mg/kg: Mus musculus, 25 min, 25 min before PBQ i.p., number of mice out of ten with analgesia. An excerpt:
The Writhing Assay is one of the most widely-used experimental procedures for measuring the analgesic activity of different narcotic and nonnarcotic analgesic agents, and involves the continuous, chemically-induced pain of visceral origin to an animal, such as a mouse or rat. [Gyires et al., Arch. int. Pharmacodyn, 267, 131-140 (1984); C. Vander Wende et al., Fed. Proc., 15, 494 (1956); Koster et al., Fed. Proc., 18, 412 (1959); and Witken et al., J. Pharmacol. exp. Ther., 133, 400-408 (1961).] Chemicals which may be used to induce this pain include phenylbenzoquinone (PBQ) and acetic acid. As a result of the chemical irritation to the animal, a characteristic stretching and writhing of the animal (dorsiflexion of the animal's back, extension of its hindlimbs and the strong contraction of its abdominal musculature) will generally occur. […] Drugs which reduce the number of writhes of the animal appear to restore the normal nociceptive threshold of the animal.
Charles River male albino mice, weighing 20 to 30 grams were used in this assay.
Twenty-five minutes after subcutaneous or intragastric administration to ten mice of 30 mg per kilogram of body weight of a compound of the present invention ("test compound"), […] per 10 g of body weight of a 0.025% w/v solution of PBQ was injected intraperitoneally into each mouse. Ten mice which were given saline in place of a test compound of the invention were used as a control group.
Five minutes later, each mouse was individually placed into a glass beaker for observation, and the number of writhes occurring during the following ten-minute period was counted.
A test compound was considered to have produced analgesia in a mouse if, in accordance with the conditions set forth above, and under the test criteria employed for this assay, after the administration of 30 mg per kilogram of body weight of a compound of the present invention to the mouse, the number of writhes elicited by a mouse injected with PBQ was equal to, or less than, one-half the median number of writhes recorded for the saline-treated control group of mice that day, as described by Taber in "Predictive Value of Analgesic Assays in Mice and Rats," Advances in Biochemical Psychopharmacology, 8, 191 (1974).
The results for the particular compounds of the present invention analyzed in this assay, and discussed in the examples identified below which correspond thereto, are presented in Table 2 hereinbelow under the heading "WRITHING ASSAY." The fractions indicate the number of mice out of ten in which a test compound produced analgesia.
A general note: In writhing tests, fewer writhes than in controls are read as antinociception.

[3] abbreviates: ip, 30 mg per kg i.g., read-out: WRITHING ASSAY Number Out of Ten I.G. (converted).
[4] abbreviates: sc, 30 mg per kg s.c., read-out: WRITHING ASSAY Number Out of Ten S.C.

The Kb is the equilibrium dissociation constant of an antagonist, usually derived from a functional assay. For the compound `CCN(CC)c1ccc2c(c1)N(C(=O)NNC(=O)CCS(=O)(=O)CC)Cc1ccccc1O2` [Example 15, 8-(diethylamino)dibenz[b,f][1,4]oxazepine-10(11H)-carboxylic acid, 2-[3-(ethylsulfonyl)-1-oxopropyl]hydrazide], the antagonist dissociation constant (Kb) in test [1] was 708 nM. Further, the responders at 30 mg/kg is 30% in test [2] (setting [3]) and 10% in test [2] (setting [4]).
Turning to `CCS(=O)(=O)CCC(=O)NNC(=O)N1Cc2ccccc2Oc2ccc(F)cc21` [Example 7, 8-fluorodibenz[b,f][1,4]oxazepine-10(11H)-carboxylic acid, 2-[3-(ethylsulfonyl)-1-oxopropyl]hydrazide], the responders at 30 mg/kg in test [2] (setting [3]) is 40%; in test [2] (setting [4]) it was 60%.
Consider `CCS(=O)(=O)CCC(=O)NNC(=O)N1Cc2ccccc2Oc2ccc(NS(C)(=O)=O)cc21` [Example 14, 8-[(methylsulfonyl)amino]dibenz[b,f][1,4]-oxazepine-10(11H)-carboxylic acid, 2-[3-(ethylsulfonyl)-1-oxopropyl]hydrazide], for which the responders at 30 mg/kg in test [2] (setting [3]) and in test [2] (setting [4]) was 60% throughout.
Take `CCS(=O)(=O)CCC(=O)NNC(=O)N1Cc2ccccc2Oc2c(Cl)cccc21` [Example 12, 6-chlorodibenz[b,f][1,4]oxazepine-10(11H)-carboxylic acid, 2-[3-(ethylsulfonyl)-1-oxopropyl]hydrazide]: the antagonist equilibrium constant (Kb) in test [1] is 1150 nM. The responders at 30 mg/kg in test [2] (setting [3]) is 30%; in test [2] (setting [4]) it was 40%.
Taken in the same sequence, the figures for `CCS(=O)(=O)CCC(=O)NNC(=O)N1Cc2ccccc2Oc2ccc(N)cc21` [Example 13, 8-aminodibenz[b,f][1,4]oxazepine-10(11H)-carboxylic acid, 2-[3-(ethylsulfonyl)-1-oxopropyl]hydrazide] were 2820 nM, 40% and 40%.
The matching figures for `CCS(=O)(=O)CCC(=O)NNC(=O)N1Cc2cc(Cl)ccc2Oc2ccc(Cl)cc21` [Example 9, 2,8-dichlorodibenz[b,f][1,4]oxazepine-10(11H)-carboxylic acid, 2-[3-(ethylsulfonyl)-1-oxopropyl]hydrazide]: 1580 nM, 40% and 30%.
With `CCS(=O)(=O)CCC(=O)NNC(=O)N1Cc2ccccc2Oc2ccc([N+](=O)[O-])cc21` [Example 10, 8-nitrodibenz[b,f][1,4]oxazepine-10(11H)-carboxylic acid, 2-[3-(ethylsulfonyl)-1-oxopropyl]hydrazide], in test [1], the antagonist equilibrium constant (Kb) was 2880 nM. Besides, the responders at 30 mg/kg in test [2] (setting [3]) and in test [2] (setting [4]) was 40% throughout.
As to `CCS(=O)(=O)CCC(=O)NNC(=O)N1Cc2ccccc2Oc2ccc(C(=O)O)cc21` [Example 4, Dibenz[b,f][1,4]oxazepine-8,10(11H)-dicarboxylic acid, 10-[2-[3-(ethylsulfonyl)-1-oxopropyl]hydrazide]], the results for the responders at 30 mg/kg in test [2] (setting [3]) and in test [2] (setting [4]) were 30% and 40%, respectively.
Turning to `CCS(=O)(=O)CCC(=O)NNC(=O)N1Cc2ccccc2Oc2cc(C(=O)OC)ccc21` [Example 2, Dibenz[b,f][1,4]oxazepine-7,10(11H) dicarboxylic acid, 7-methyl ester, 10-[2-[3-(ethylsulfonyl)-1-oxopropyl]hydrazide]], the Kb in test [1] was 2000 nM. Besides, the responders at 30 mg/kg in test [2] (setting [3]) is 33.3%; in test [2] (setting [4]) it was 30%.
On to `CCS(=O)(=O)CCC(=O)NNC(=O)N1Cc2ccccc2Oc2ccc(C(F)(F)F)cc21` [Example 20, 8-(trifluoromethyl)dibenz[b,f][1,4]oxazepine-10(11H)-carboxylic acid, 2-[3-(ethylsulfonyl)-1-oxopropyl]hydrazide], for which the Kb in test [1] was 1260 nM. For the same compound, the “potency in the Writhing Assay (in words)” value in test [2] (30 mg per kg s.c. or i.g.) is “most potent compound of the invention tested in this assay”. The responders at 30 mg/kg in test [2] (setting [3]) and in test [2] (setting [4]) was 60% each time.
As for `CCS(=O)(=O)CCC(=O)NNC(=O)N1Cc2cccc(Cl)c2Oc2ccccc21` [Example 18, 4-chlorodibenz[b,f][1,4]oxazepine-10(11H)-carboxylic acid, 2-[3-(ethylsulfonyl)-1-oxopropyl]hydrazide], the Kb in test [1] is 2690 nM. Further, the responders at 30 mg/kg in test [2] (setting [3]) and in test [2] (setting [4]) was 40% in each case.
Take `CCS(=O)(=O)CCC(=O)NNC(=O)N1Cc2cc(Cl)ccc2Oc2ccccc21` [Example 8, 2-chlorodibenz[b,f][1,4]oxazepine-10(11H)-carboxylic acid, 2-[3-(ethylsulfonyl)-1-oxopropyl]hydrazide]: the responders at 30 mg/kg in test [2] (setting [3]) and in test [2] (setting [4]) was 60% in each case.
As for `CCS(=O)(=O)CCC(=O)NNC(=O)N1Cc2ccccc2Oc2ccc(OC)cc21` [Example 16, 8-methoxydibenz[b,f][1,4]oxazepine-10(11H)-carboxylic acid, 2-[3-(ethylsulfonyl)-1-oxopropyl]hydrazide], the antagonist equilibrium constant (Kb) in test [1] was 2000 nM. In addition, the responders at 30 mg/kg is 60% in test [2] (setting [3]) and 20% in test [2] (setting [4]).
In the case of `CCS(=O)(=O)CCC(=O)NNC(=O)N1Cc2ccccc2Oc2ccc(C#N)cc21` [Example 11, 8-cyanodibenz[b,f][1,4]oxazepine-10(11H)-carboxylic acid, 2-[3-(ethylsulfonyl)-1-oxopropyl]hydrazide], the results for the responders at 30 mg/kg in test [2] (setting [3]) and in test [2] (setting [4]) were 55.6% and 50%, respectively.
As for `CCS(=O)(=O)CCC(=O)NNC(=O)N1Cc2ccccc2Sc2ccc(Cl)cc21` [Example 22, 8-chloro-10,11-dihydrodibenzo[b,f][1,4]thiazepine-10-(11H) carboxylic acid, 2-[3-(ethysulfonyl)-1-oxopropyl]hydrazide], the responders at 30 mg/kg in test [2] (setting [3]) was 60%; in test [2] (setting [4]), 30%.
The matching figures for `CCS(=O)(=O)CCC(=O)NNC(=O)N1Cc2ccccc2S(=O)(=O)c2ccc(Cl)cc21` [Example 23, 8-chloro-10,11-dihydrodibenzo[b,f][1,4]thiazepine-10(11H) carboxylic acid, 2-[3-(ethylsulfonyl)-1-oxopropyl]hydrazide, 5,5-dioxide]: 30% and 70%.

The record behind these values is patent US5461046A, “1-,2-,3-,4-,5-,6-,7-,8-, and/or 9-substituted dibenzoxazepine compounds, pharmaceutical compositions and methods for treating pain” (G. D. Searle & Co., priority 1993, dated 1995).
